Test results: US20200009118A1, “COMPOSITIONS AND METHODS FOR THE TREATMENTOF NEURODEGENERATIVE AND OTHER DISEASES” (Glialogix, Inc., priority 2017, published 2020)

Test system: activated microglial cells
Test: Microglial activation (anti-F4/80 area fraction) in spinal cord ventral horn of SOD1 mice
Assay type: in vivo, mouse
Conditions: Microglia
From the text: The same test mice, spinal cord preparations and methods of analysis used in the neuroinflammatory study were identical to those used in the xCT quantitation study. Two neuroinflammatory cell populations were quantitated: (1) activated microglial cells using an antibody to the F4/80 antigen, and (2) activated astrocytes, using an antibody to the GFAP antigen. For each objective image, light parameters were optimized and kept consistent across all sections. Images that were captured at 20× were then imported into ImageJ freeware (NIH, Bethesda, Md.). A maximum entropy threshold algorithm was applied to all images in a completely blinded fashion to filter out all pixels that were not stained as DAB positive. 20× images were analyzed in a blinded fashion and mean area fraction occupied by stain was tabulated. Levels of neuroinflammation in the spinal cord were assessed by measuring the area fraction of the area of the ventral horn in the spinal cord occupied by activated astrocytes or microglia. Area fraction was compared with respect to treatment using 1-way ANOVA analysis, with a p-value of 0.05 considered significant.
For quantitation of microglial activation, samples were pretreated with Pronase for 20 minutes at RT, followed by treatment with 3% H2O2 for 12 minutes at RT (25° C.). Goat serum was added to 2% and samples incubated for 20 minutes at RT. The samples were then incubated with the primary antibody (Anti-F4/80) purchased from Serotec (Catalog # MCA497R; Oxford, United Kingdom), diluted 1:250 in PBS overnight at 4° C. The secondary antibody (Biotin labeled […]; 1:250 dilution in PBS) was then added and the reaction incubated 1 hour at RT. Reaction products were developed using the Vector ABC system (Vector Labs, Burlingame, Calif.) using avidin-conjugated horseradish peroxidase (45 minutes at RT). Activated microglia were visualized by addition of the chromogenic substrate DAB (3,3′-diaminobenzidine) for 6 minutes at RT.

Compound: O=C(O)c1cc(/N=N/c2ccc(S(=O)(=O)Nc3ccccn3)cc2)ccc1O [Sulfasalazine, 2-hydroxy-5-[(E)-2-{4-[(pyridin-2-yl)sulfamoyl]phenyl}diazen-1-yl]benzoic acid]
- Decreased activation vs. vehicle treated SOD1 mice (Cervical, day 85, listed as Sulfasalazine formulation): significantly decreased microglial activation
- Decreased activation vs. vehicle treated SOD1 mice (Cervical, day 85, listed as sulfasalazine formulation): Strong decrease (p < 0.01)
- Decreased activation vs. vehicle treated SOD1 mice (Cervical, day 100, listed as Sulfasalazine formulation): trend towards decreased microglial activation
- Decreased activation vs. vehicle treated SOD1 mice (Cervical, day 100, listed as sulfasalazine formulation): Trend
- Decreased activation vs. vehicle treated SOD1 mice (Combined, day 85): Trend
- Decreased activation vs. vehicle treated SOD1 mice (Combined, day 100): No decrease
- Decreased activation vs. vehicle treated SOD1 mice (Lumbar, day 85, listed as Sulfasalazine formulation): reduced microglial activation
- Decreased activation vs. vehicle treated SOD1 mice (Lumbar, day 85, listed as sulfasalazine formulation): Trend
- Decreased activation vs. vehicle treated SOD1 mice (Lumbar, day 100, listed as Sulfasalazine formulation): did not affect such activation
- Decreased activation vs. vehicle treated SOD1 mice (Lumbar, day 100, listed as sulfasalazine formulation): No decrease
- Decreased activation vs. vehicle treated SOD1 mice (Thoracic, day 85): No decrease
- Decreased activation vs. vehicle treated SOD1 mice (Thoracic, day 100): No decrease
